According to ChEMBL document CHEMBL1144434, “Structure-activity relationships within a series of caspase inhibitors. Part 2: Heterocyclic warheads” (Bioorg Med Chem Lett, 2005):
pIC50: −log10 of the molar value.

Target: T1, Caspase-1 (Mus musculus) (UniProt P29452)
T1 sequence (whole entry): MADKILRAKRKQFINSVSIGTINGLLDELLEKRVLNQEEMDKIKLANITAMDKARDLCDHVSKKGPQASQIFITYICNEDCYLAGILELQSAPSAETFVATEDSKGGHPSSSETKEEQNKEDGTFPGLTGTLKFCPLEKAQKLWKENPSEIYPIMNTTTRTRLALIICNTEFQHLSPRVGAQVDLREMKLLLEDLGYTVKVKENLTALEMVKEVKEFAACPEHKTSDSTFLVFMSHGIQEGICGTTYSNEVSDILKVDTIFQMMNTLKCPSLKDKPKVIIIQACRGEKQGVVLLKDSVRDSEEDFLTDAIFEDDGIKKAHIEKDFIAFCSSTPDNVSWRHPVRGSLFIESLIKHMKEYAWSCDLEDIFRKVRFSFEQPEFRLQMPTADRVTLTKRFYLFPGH
Test: Binding affinity against mouse Caspase-1
Settings: not given

First: CC(C)[C@H](NC(=O)COc1cccc2ccccc12)C(=O)N[C@@H](CC(=O)O)C(=O)CSc1nc(-c2ccccc2)cs1
Second: CC(C)[C@H](NC(=O)COc1cccc2ccccc12)C(=O)N[C@@H](CC(=O)O)C(=O)CSc1nc2ccccc2s1
The k3/ki of the first is higher: 217 1/m/s for the first, 202 1/m/s for the second.

First: COC(=O)c1cc(OCC(=O)[C@H](CC(=O)O)NC(=O)[C@@H](NC(=O)COc2cccc3ccccc23)C(C)C)no1
Second: CC(C)[C@H](NC(=O)COc1cccc2ccccc12)C(=O)N[C@@H](CC(=O)O)C(=O)COc1ccccn1
The k3/ki of the first is higher: 42500 1/m/s for the first, 138 1/m/s for the second.

Compared with `CC(C)[C@H](NC(=O)COc1cccc2ccccc12)C(=O)N[C@@H](CC(=O)O)C(=O)CSc1nc(-c2ccccc2)no1`, `CC(C)[C@H](NC(=O)COc1cccc2ccccc12)C(=O)N[C@@H](CC(=O)O)C(=O)COn1nnc2ccccc21` is higher in k3/ki: 1190 1/m/s for the first, 28300 1/m/s for the second.

First: CC(C)[C@H](NC(=O)COc1cccc2ccccc12)C(=O)N[C@@H](CC(=O)O)C(=O)COc1nccc(C(F)(F)F)n1
Second: CC(C)[C@H](NC(=O)COc1cccc2ccccc12)C(=O)N[C@@H](CC(=O)O)C(=O)COc1cc(C(F)(F)F)n(C)n1
The k3/ki of the first is lower: 0 1/m/s for the first, 9400 1/m/s for the second.

For `CC(C)[C@H](NC(=O)COc1cccc2ccccc12)C(=O)N[C@@H](CC(=O)O)C(=O)COc1cc2ccccc2cn1`, the k3/ki was 693 1/m/s.

Target: T2, Caspase-6 (Homo sapiens) (UniProt P55212)
T2 sequence (whole entry): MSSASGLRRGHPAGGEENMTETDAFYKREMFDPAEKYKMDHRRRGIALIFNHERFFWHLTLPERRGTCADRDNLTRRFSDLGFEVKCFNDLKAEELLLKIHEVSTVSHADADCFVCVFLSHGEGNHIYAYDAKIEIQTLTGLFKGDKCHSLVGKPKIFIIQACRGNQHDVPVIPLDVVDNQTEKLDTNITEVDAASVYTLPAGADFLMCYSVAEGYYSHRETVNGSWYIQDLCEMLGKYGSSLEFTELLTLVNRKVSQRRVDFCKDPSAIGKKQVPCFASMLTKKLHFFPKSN
Test: Binding affinity against Caspase-6
Settings: not given

`CC(C)[C@H](NC(=O)COc1cccc2ccccc12)C(=O)N[C@@H](CC(=O)O)C(=O)CSc1nc(-c2ccccc2)cs1` and `CC(C)[C@H](NC(=O)COc1cccc2ccccc12)C(=O)N[C@@H](CC(=O)O)C(=O)CSc1nc2ccccc2s1` are the same in k3/ki: 0 1/m/s for the first, 0 1/m/s for the second.

Compared with `COC(=O)c1cc(OCC(=O)[C@H](CC(=O)O)NC(=O)[C@@H](NC(=O)COc2cccc3ccccc23)C(C)C)no1`, `CC(C)[C@H](NC(=O)COc1cccc2ccccc12)C(=O)N[C@@H](CC(=O)O)C(=O)COc1ccccn1` is lower in k3/ki: 5800 1/m/s for the first, 5 1/m/s for the second.

Compared with `CC(C)[C@H](NC(=O)COc1cccc2ccccc12)C(=O)N[C@@H](CC(=O)O)C(=O)CSc1nc(-c2ccccc2)no1`, `CC(C)[C@H](NC(=O)COc1cccc2ccccc12)C(=O)N[C@@H](CC(=O)O)C(=O)COn1nnc2ccccc21` is higher in k3/ki: 975 1/m/s for the first, 8530 1/m/s for the second.

First: CC(C)[C@H](NC(=O)COc1cccc2ccccc12)C(=O)N[C@@H](CC(=O)O)C(=O)COc1nccc(C(F)(F)F)n1
Second: CC(C)[C@H](NC(=O)COc1cccc2ccccc12)C(=O)N[C@@H](CC(=O)O)C(=O)COc1cc(C(F)(F)F)n(C)n1
The k3/ki of the first is lower: 0 1/m/s for the first, 509 1/m/s for the second.

`CC(C)[C@H](NC(=O)COc1cccc2ccccc12)C(=O)N[C@@H](CC(=O)O)C(=O)COc1cc2ccccc2cn1` was tested, and the k3/ki was 96 1/m/s.

Target: T3, Caspase-3 (Homo sapiens) (UniProt P42574)
T3 sequence (whole entry): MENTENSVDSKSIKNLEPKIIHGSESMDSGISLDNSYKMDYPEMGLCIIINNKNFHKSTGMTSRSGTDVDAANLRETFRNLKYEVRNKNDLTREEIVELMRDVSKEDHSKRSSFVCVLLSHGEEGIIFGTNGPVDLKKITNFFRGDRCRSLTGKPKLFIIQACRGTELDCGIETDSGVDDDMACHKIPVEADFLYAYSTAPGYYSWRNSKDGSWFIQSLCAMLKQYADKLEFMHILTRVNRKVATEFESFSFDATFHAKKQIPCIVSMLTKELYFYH
Test: Binding affinity against Caspase-3
Settings: not given

Compared with `CC(C)[C@H](NC(=O)COc1cccc2ccccc12)C(=O)N[C@@H](CC(=O)O)C(=O)CSc1nc(-c2ccccc2)cs1`, `CC(C)[C@H](NC(=O)COc1cccc2ccccc12)C(=O)N[C@@H](CC(=O)O)C(=O)CSc1nc2ccccc2s1` is higher in k3/ki: 2730 1/m/s for the first, 3570 1/m/s for the second.

Going from `COC(=O)c1cc(OCC(=O)[C@H](CC(=O)O)NC(=O)[C@@H](NC(=O)COc2cccc3ccccc23)C(C)C)no1` to `CC(C)[C@H](NC(=O)COc1cccc2ccccc12)C(=O)N[C@@H](CC(=O)O)C(=O)COc1ccccn1`, the k3/ki falls from 144000 1/m/s to 733 1/m/s.

Going from `CC(C)[C@H](NC(=O)COc1cccc2ccccc12)C(=O)N[C@@H](CC(=O)O)C(=O)CSc1nc(-c2ccccc2)no1` to `CC(C)[C@H](NC(=O)COc1cccc2ccccc12)C(=O)N[C@@H](CC(=O)O)C(=O)COn1nnc2ccccc21`, the k3/ki rises from 38100 1/m/s to 121000 1/m/s.

First: CC(C)[C@H](NC(=O)COc1cccc2ccccc12)C(=O)N[C@@H](CC(=O)O)C(=O)COc1nccc(C(F)(F)F)n1
Second: CC(C)[C@H](NC(=O)COc1cccc2ccccc12)C(=O)N[C@@H](CC(=O)O)C(=O)COc1cc(C(F)(F)F)n(C)n1
The k3/ki of the first is lower: 0 1/m/s for the first, 35500 1/m/s for the second.

For `CC(C)[C@H](NC(=O)COc1cccc2ccccc12)C(=O)N[C@@H](CC(=O)O)C(=O)COc1cc2ccccc2cn1`, the k3/ki was 3350 1/m/s.

Test system: Jurkat
Test: Inhibitory concentration for cellular activity in jurkat assay
Format: functional, cell-based
Settings: Homo sapiens

`CC(C)[C@H](NC(=O)COc1cccc2ccccc12)C(=O)N[C@@H](CC(=O)O)C(=O)CSc1nc(-c2ccccc2)cs1` and `CC(C)[C@H](NC(=O)COc1cccc2ccccc12)C(=O)N[C@@H](CC(=O)O)C(=O)CSc1nc2ccccc2s1` cannot be ordered by pIC50: less than 3.70 for the first, less than 3.70 for the second.

Compared with `COC(=O)c1cc(OCC(=O)[C@H](CC(=O)O)NC(=O)[C@@H](NC(=O)COc2cccc3ccccc23)C(C)C)no1`, `CC(C)[C@H](NC(=O)COc1cccc2ccccc12)C(=O)N[C@@H](CC(=O)O)C(=O)COc1ccccn1` is lower in pIC50: 4.15 for the first, less than 3.70 for the second. The first is the more potent here.

Compared with `CC(C)[C@H](NC(=O)COc1cccc2ccccc12)C(=O)N[C@@H](CC(=O)O)C(=O)CSc1nc(-c2ccccc2)no1`, `CC(C)[C@H](NC(=O)COc1cccc2ccccc12)C(=O)N[C@@H](CC(=O)O)C(=O)COn1nnc2ccccc21` is lower in pIC50: 3.99 for the first, less than 3.70 for the second. The first is the more potent here.

First: CC(C)[C@H](NC(=O)COc1cccc2ccccc12)C(=O)N[C@@H](CC(=O)O)C(=O)COc1nccc(C(F)(F)F)n1
Second: CC(C)[C@H](NC(=O)COc1cccc2ccccc12)C(=O)N[C@@H](CC(=O)O)C(=O)COc1cc(C(F)(F)F)n(C)n1
The pIC50 of the first is lower: less than 3.70 for the first, 4.34 for the second. The second is the more potent here.

For `CC(C)[C@H](NC(=O)COc1cccc2ccccc12)C(=O)N[C@@H](CC(=O)O)C(=O)COc1cc2ccccc2cn1`, the pIC50 was less than 3.70.

Target: Caspase-8 (Homo sapiens) (UniProt Q14790)
Sequence (Q14790 217-374 limits assumed): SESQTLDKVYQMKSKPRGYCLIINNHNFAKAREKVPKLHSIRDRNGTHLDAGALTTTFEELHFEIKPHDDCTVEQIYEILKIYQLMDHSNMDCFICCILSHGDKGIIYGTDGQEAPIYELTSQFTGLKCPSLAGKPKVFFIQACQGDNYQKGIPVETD
Sequence (Q14790 385-479 limits assumed): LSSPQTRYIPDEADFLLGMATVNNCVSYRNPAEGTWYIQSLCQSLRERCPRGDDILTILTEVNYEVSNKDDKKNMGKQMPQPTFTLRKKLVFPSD
Test: Binding affinity against Caspase-8
Settings: not given

`CC(C)[C@H](NC(=O)COc1cccc2ccccc12)C(=O)N[C@@H](CC(=O)O)C(=O)CSc1nc(-c2ccccc2)cs1` and `CC(C)[C@H](NC(=O)COc1cccc2ccccc12)C(=O)N[C@@H](CC(=O)O)C(=O)CSc1nc2ccccc2s1` are the same in k3/ki: 0 1/m/s for the first, 0 1/m/s for the second.

Compared with `COC(=O)c1cc(OCC(=O)[C@H](CC(=O)O)NC(=O)[C@@H](NC(=O)COc2cccc3ccccc23)C(C)C)no1`, `CC(C)[C@H](NC(=O)COc1cccc2ccccc12)C(=O)N[C@@H](CC(=O)O)C(=O)COc1ccccn1` is lower in k3/ki: 6340 1/m/s for the first, 8 1/m/s for the second.

Going from `CC(C)[C@H](NC(=O)COc1cccc2ccccc12)C(=O)N[C@@H](CC(=O)O)C(=O)CSc1nc(-c2ccccc2)no1` to `CC(C)[C@H](NC(=O)COc1cccc2ccccc12)C(=O)N[C@@H](CC(=O)O)C(=O)COn1nnc2ccccc21`, the k3/ki rises from 3060 1/m/s to 14500 1/m/s.

First: CC(C)[C@H](NC(=O)COc1cccc2ccccc12)C(=O)N[C@@H](CC(=O)O)C(=O)COc1nccc(C(F)(F)F)n1
Second: CC(C)[C@H](NC(=O)COc1cccc2ccccc12)C(=O)N[C@@H](CC(=O)O)C(=O)COc1cc(C(F)(F)F)n(C)n1
The k3/ki of the first is lower: 0 1/m/s for the first, 295 1/m/s for the second.

In the case of `CC(C)[C@H](NC(=O)COc1cccc2ccccc12)C(=O)N[C@@H](CC(=O)O)C(=O)COc1cc2ccccc2cn1`, the k3/ki was 8 1/m/s.
